Reference: patent US7041687B2, “Indazole compounds useful as protein kinase inhibitors” (Vertex Pharmaceuticals Incorporated, priority 2002, dated 2006)

Experiments:
Type in all cases: biochemical
AKT-3 = AKT-3 (Homo sapiens, UniProt Q9Y243); test: AKT-3 inhibition assay (standard coupled enzyme assay); details: 170 μM ATP, 200 μM peptide, 45 nM AKT, 30° C.
PKA = PKA (Homo sapiens, UniProt P17612); test: PKA inhibition assay (standard coupled enzyme assay); details: 50 μM ATP, 80 μM Kemptide, 18 nM PKA, 30° C.
Experimental: Compounds were screened for their ability to inhibit PKA using a standard coupled enzyme assay (Fox et al., Protein Sci., (1998) 7, 2249). Assays were carried out in a mixture of 100 mM HEPES 7.5, 10 mM MgCl2, 25 mM NaCl, 1 mM DTT and 3% DMSO. Final substrate concentrations in the assay were 50 μM ATP (Sigma Chemicals) and 80 μM peptide (Kemptide, American Peptide, Sunnyvale, Calif.). Assays were carried out at 30° C. and 18 nM PKA. Final concentrations of the components of the coupled enzyme system were 2.5 mM phosphoenolpyruvate, 300 μM NADH, 30 μg/ml pyruvate kinase and 10 μg/ml lactate dehydrogenase.
An assay stock buffer solution was prepared containing all of the reagents listed above, with the exception of ATP, and the test compound of interest. 55 μl of the stock solution was placed in a 96 well plate followed by addition of 2 μl of DMSO stock containing serial dilutions of the test compound (typically starting from a final concentration of 5 μM). The plate was preincubated for 10 minutes at 30° C. and the reaction initiated by addition of 5 μl of ATP (final concentration 50 μM). Initial reaction rates were determined with a Molecular Devices SpectraMax Plus plate reader over a 15 minute time course. IC50 and Ki data were calculated from non-linear regression analysis using the Prism software package (GraphPad Prism version 3.0a for Macintosh, GraphPad Software, San Diego Calif., USA).

PDK-1 = target: T1, PDK-1 (Homo sapiens, UniProt O15530); test: PDK-1 inhibition assay (radioactive-phosphate incorporation); details: 40 μM ATP, 65 μM PDKtide, 25 nM PDK-1, 30° C.
T1 sequence (O15530 1-556): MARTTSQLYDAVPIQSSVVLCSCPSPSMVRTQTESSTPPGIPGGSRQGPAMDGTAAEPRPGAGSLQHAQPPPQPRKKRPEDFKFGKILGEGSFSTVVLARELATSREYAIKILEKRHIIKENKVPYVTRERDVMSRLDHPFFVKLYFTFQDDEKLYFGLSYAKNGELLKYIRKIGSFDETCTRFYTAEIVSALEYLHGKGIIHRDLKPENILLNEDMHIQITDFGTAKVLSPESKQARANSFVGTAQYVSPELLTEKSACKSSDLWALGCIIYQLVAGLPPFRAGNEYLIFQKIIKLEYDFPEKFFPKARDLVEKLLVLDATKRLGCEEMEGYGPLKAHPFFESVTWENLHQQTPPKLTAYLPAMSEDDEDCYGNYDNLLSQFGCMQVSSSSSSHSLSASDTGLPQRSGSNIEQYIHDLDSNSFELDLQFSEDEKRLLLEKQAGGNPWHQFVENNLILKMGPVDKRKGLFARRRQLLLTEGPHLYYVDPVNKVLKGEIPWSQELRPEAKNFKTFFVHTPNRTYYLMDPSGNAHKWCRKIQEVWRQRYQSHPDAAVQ

Sequence of AKT-3 (Q9Y243 whole entry): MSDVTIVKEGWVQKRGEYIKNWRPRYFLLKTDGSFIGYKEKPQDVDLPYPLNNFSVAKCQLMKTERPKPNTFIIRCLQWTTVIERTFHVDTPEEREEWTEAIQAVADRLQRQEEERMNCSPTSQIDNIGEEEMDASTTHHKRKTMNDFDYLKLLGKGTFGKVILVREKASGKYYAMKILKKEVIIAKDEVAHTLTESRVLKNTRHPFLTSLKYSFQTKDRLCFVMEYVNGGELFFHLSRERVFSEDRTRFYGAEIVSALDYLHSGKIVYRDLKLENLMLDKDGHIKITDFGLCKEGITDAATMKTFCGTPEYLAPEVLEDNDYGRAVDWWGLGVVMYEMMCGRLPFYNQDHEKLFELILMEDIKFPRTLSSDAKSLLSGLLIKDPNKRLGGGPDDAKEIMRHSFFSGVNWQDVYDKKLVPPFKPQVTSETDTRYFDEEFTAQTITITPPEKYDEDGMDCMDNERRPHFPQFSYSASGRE

SMILES | Ki (AKT-3) [nM] | Ki (PKA) [nM] | Ki (PDK-1) [nM]
O=C(Cc1cccc(Cl)c1)Nc1ccc2[nH]ncc2c1 [Compound I-6, 2-(3-Chloro-phenyl)-N-(1H-indazol-5-yl)-acetamide] |  | 1000 to 5000 | 
O=C(Nc1ccc2[nH]ncc2c1)[C@H](O)c1cccc(Cl)c1 [Compound I-40] | 1000 to 10000 | < 1000 | 
O=C(Nc1ccc2[nH]ncc2c1)C(O)c1cc(F)cc(F)c1 (centres unmarked) [Compound I-43] | 1000 to 10000 | < 1000 | 
N[C@@H](C(=O)Nc1ccc2[nH]ncc2c1)c1ccccc1 [Compound I-48] | 1000 to 10000 | < 1000 | 
NC(C(=O)Nc1ccc2[nH]ncc2c1)c1ccc(Cl)c(Cl)c1 (centres unmarked) [Compound I-54] | 1000 to 10000 | < 1000 | > 3000
NCCNC(C(=O)Nc1ccc2[nH]ncc2c1)c1cccc(Cl)c1 (centres unmarked) [Compound I-59, 2-(2-Amino-ethylamino)-2-(3-chloro-phenyl)-N-(1H-indazol-5-yl)-acetamide] | < 1000 | < 1000 | 
NCCNC(C(=O)Nc1ccc2[nH]ncc2c1)c1ccc(Cl)c(Cl)c1 (centres unmarked) [Compound I-69] |  | < 1000 | 
O=C(Nc1ccc2[nH]nc(Cl)c2c1)[C@H](O)c1cccc(Cl)c1 [Compound I-78] | 1000 to 10000 | < 1000 | 
O=C(Nc1ccc2[nH]ncc2c1)C(CO)c1ccccc1 (centres unmarked) [Compound I-84] |  | 1000 to 5000 | 
O=C(CCCc1ccccc1)Nc1ccc2[nH]ncc2c1 [Compound I-92] |  | 1000 to 5000 | 
O=C(Cc1cccc(Cl)c1F)Nc1ccc2[nH]ncc2c1 [Compound I-93] |  | < 1000 | 
NCC(C(=O)Nc1ccc2[nH]ncc2c1)c1cccc(Cl)c1 (centres unmarked) [Compound I-97] | < 1000 | < 1000 | 
NCCC(C(=O)Nc1ccc2[nH]ncc2c1)c1ccccc1 (centres unmarked) [Compound I-98] | < 1000 | < 1000 | 1000 to 3000
NCCC(C(=O)Nc1ccc2[nH]ncc2c1)c1cccc(Cl)c1 (centres unmarked) [Compound I-100] | < 1000 | < 1000 | < 1000
NCCC(C(=O)Nc1ccc2[nH]ncc2c1)c1ccc(F)c(C(F)(F)F)c1 (centres unmarked) [Compound I-103] | < 1000 | < 1000 | 
NCCC(C(=O)Nc1ccc2[nH]ncc2c1)c1cccc(C(F)(F)F)c1 (centres unmarked) [Compound I-104] | < 1000 | < 1000 | 
Cc1n[nH]c2ccc(NC(=O)C(CCN)c3cccc(Cl)c3F)cc12 (centres unmarked) [Compound I-116] | < 1000 | < 1000 | 
C#Cc1cccc(C(=O)Nc2n[nH]c3ccc(NC(=O)C(CCN)c4ccc(Cl)c(Cl)c4)cc23)c1 (centres unmarked) [Compound I-205] | < 1000 | < 1000 | 
CCNc1cccc(C(=O)Nc2n[nH]c3ccc(NC(=O)C(CCN)c4ccc(Cl)c(Cl)c4)cc23)c1 (centres unmarked) [Compound I-210] | < 1000 | < 1000 | 
Cc1n[nH]c2ccc(NC(=O)C(CN)c3ccc(Cl)s3)cc12 (centres unmarked) [Compound I-245] | < 1000 | < 1000 | 
NCCC(C(=O)Nc1ccc2[nH]nc(-c3cccc(C(=O)O)c3)c2c1)c1ccccc1 (centres unmarked) [Compound I-246] |  | < 1000 | 
NCCC(C(=O)Nc1ccc2[nH]nc(-c3cccc(F)c3)c2c1)c1ccc(Cl)c(Cl)c1 (centres unmarked) [Compound I-252] | < 1000 | < 1000 | 
NCCC(C(=O)Nc1ccc2[nH]nc(-c3cccc(CN)c3)c2c1)c1ccccc1 (centres unmarked) [Compound I-260] |  | < 1000 | < 1000
NCCC(C(=O)Nc1ccc2[nH]nc(-c3ccc(-c4nn[nH]n4)cc3)c2c1)c1ccccc1 (centres unmarked) [Compound I-261] |  | < 1000 | < 1000
NCC[C@H](C(=O)Nc1ccc2[nH]nc(-c3ccc(C(=O)O)cc3)c2c1)c1ccccc1 [Compound I-263] |  | < 1000 | < 1000
Cc1n[nH]c2ccc(NC(=O)[C@H](CCN)c3ccccc3)cc12 [Compound I-1034] |  | < 1000 | < 1000

The next lines start with the values.

Ki (AKT-3) [nM] | Ki (PKA) [nM] | Ki (PDK-1) [nM] | SMILES
10000 to 20000 | < 1000 |  | O=C(Cc1cccc(C(F)(F)F)c1)Nc1ccc2[nH]ncc2c1 [Compound I-2]
 | 1000 to 5000 |  | O=C(Cc1c[nH]c2ccccc12)Nc1ccc2[nH]ncc2c1 [Compound I-24]
1000 to 10000 | < 1000 |  | O=C(Nc1ccc2[nH]ncc2c1)C(O)c1ccc(Cl)cc1 (centres unmarked) [Compound I-35]
1000 to 10000 | < 1000 |  | NC(C(=O)Nc1ccc2[nH]ncc2c1)c1cccc(Cl)c1 (centres unmarked) [Compound I-51]
10000 to 20000 | < 1000 |  | NC(C(=O)Nc1ccc2[nH]ncc2c1)c1cccc(Br)c1 (centres unmarked) [Compound I-52]
1000 to 10000 | < 1000 |  | NC(C(=O)Nc1ccc2[nH]ncc2c1)c1ccc(F)c(Cl)c1 (centres unmarked) [Compound I-55]
1000 to 10000 | < 1000 |  | NC(C(=O)Nc1ccc2[nH]ncc2c1)c1c[nH]c2ccccc12 (centres unmarked) [Compound I-56]
< 1000 | < 1000 |  | CNCCCNC(C(=O)Nc1ccc2[nH]ncc2c1)c1cccc(Cl)c1 (centres unmarked) [Compound I-67]
< 1000 | < 1000 |  | NCCNC(C(=O)Nc1ccc2[nH]ncc2c1)c1ccc2ccccc2c1 (centres unmarked) [Compound I-73]
1000 to 10000 | < 1000 |  | Cc1n[nH]c2ccc(NC(=O)[C@H](O)c3cccc(Cl)c3)cc12 [Compound I-76]
1000 to 10000 | < 1000 |  | Cc1n[nH]c2ccc(NC(=O)[C@H](O)c3ccc(F)c(Cl)c3)cc12 [Compound I-77]
 | < 1000 |  | O=C(Nc1ccc2[nH]ncc2c1)C(CO)c1ccc(F)c(Cl)c1 (centres unmarked) [Compound I-85]
< 1000 | < 1000 | > 3000 | NCC(C(=O)Nc1ccc2[nH]ncc2c1)c1ccc(Cl)c(Cl)c1 (centres unmarked) [Compound I-99]
< 1000 | < 1000 | 1000 to 3000 | NCCC(C(=O)Nc1ccc2[nH]ncc2c1)c1cccc(Cl)c1F (centres unmarked) [Compound I-101]
< 1000 | < 1000 | > 3000 | NCCC(C(=O)Nc1ccc2[nH]ncc2c1)c1ccc2ccccc2c1 (centres unmarked) [Compound I-102]
< 1000 | < 1000 | > 3000 | NCCC(C(=O)Nc1ccc2[nH]ncc2c1)c1cc(C(F)(F)F)cc(C(F)(F)F)c1 (centres unmarked) [Compound I-105]
< 1000 | < 1000 |  | NCCC(C(=O)Nc1cc(Cl)c2[nH]ncc2c1)c1ccc(Cl)c(Cl)c1 (centres unmarked) [Compound I-143]
< 1000 | < 1000 |  | NCCC(C(=O)Nc1cc(Br)c2[nH]ncc2c1)c1ccc(Cl)c(Cl)c1 (centres unmarked) [Compound I-144]
< 1000 | < 1000 |  | NCCC(C(=O)Nc1ccc2[nH]ncc2c1)c1cc(C(F)(F)F)cc(Cl)n1 (centres unmarked) [Compound I-149]
< 1000 | < 1000 |  | NCCC(C(=O)Nc1ccc2[nH]nc(NC(=O)c3cccc([N+](=O)[O-])c3)c2c1)c1ccc(Cl)c(Cl)c1 (centres unmarked) [Compound I-208]
< 1000 | < 1000 |  | CNc1cccc(C(=O)Nc2n[nH]c3ccc(NC(=O)C(CCN)c4ccc(Cl)c(Cl)c4)cc23)c1 (centres unmarked) [Compound I-209]
 | < 1000 | < 1000 | NCCC(C(=O)Nc1ccc2[nH]nc(-c3cccc(C(F)(F)F)c3)c2c1)c1ccccc1 (centres unmarked) [Compound I-230]
 | < 1000 | < 1000 | NCCC(C(=O)Nc1ccc2[nH]nc(-c3ccc(C(=O)O)cc3)c2c1)c1ccccc1 (centres unmarked) [Compound I-237]
 | < 1000 | < 1000 | NCCC(C(=O)Nc1ccc2[nH]nc(-c3cccc(F)c3)c2c1)c1ccccc1 (centres unmarked) [Compound I-240]
< 1000 | < 1000 |  | NC[C@H](C(=O)Nc1ccc2[nH]ncc2c1)c1ccc(Cl)c(Cl)c1 [Compound I-243]
 | < 1000 |  | COC(=O)c1cccc(-c2n[nH]c3ccc(NC(=O)C(CCN)c4ccccc4)cc23)c1 (centres unmarked) [Compound I-244]
 | < 1000 | < 1000 | Cc1ccc(-c2n[nH]c3ccc(NC(=O)C(CCN)c4ccccc4)cc23)cc1 (centres unmarked) [Compound I-249]
 | < 1000 | < 1000 | Cc1n[nH]c2ccc(NC(=O)C(CCN)c3ccccc3F)cc12 (centres unmarked) [Compound I-1026]
 | < 1000 | > 3000 | Cc1n[nH]c2ccc(NC(=O)[C@@H](CCN)c3ccccc3)cc12 [Compound I-1033]
10000 to 20000 |  | < 1000 | NCC[C@H](C(=O)Nc1ccc2[nH]nc(-c3ccccc3)c2c1)c1c(F)ccc(Cl)c1F [Compound I-1057]
